pIC50, pKi: −log10 of the molar value.
What follows are compounds tested on isolated aorta rings of rabbits, contraction induced by angiotensin II (AII) (assay: Inhibition of the vascular contraction in isolated aorta rings of rabbits in vitro, contraction induced by angiotensin II). Settings: Oryctolagus cuniculus, effect at the 3rd = submaximal agonist concentration, read-out: IC50 against contractions induced by: AII.
Assay type: cell-based, rabbit
Experimental: Investigation of the Inhibition of the Contraction Induced with Agonists
Rabbits of both sexes are anaesthetised by a blow to the neck and bled out, or alternatively anaesthetised with Nembutal (about 60-80 mg/kg i.v.) and sacrificed by opening the thorax. The thorax aorta is taken out, freed from adhering connective tissue, divided into 1.5 mm-wide ring segments and these are individually transferred under an initial loading of about 3.5 g to 10-ml organ baths containing 95% O2 /5% CO2 -aerated Krebs-Henseleit nutrient solution, thermostated at 37° C., of the following composition: 119 mmol/l NaCl; 2.5 mmol/l CaCl2 ×2H2 O; 1.2 mmol/l KH2 PO4; 10 mmol/l glucose; 4.8 mmol/l KCl; 1.4 mmol/l MgSO4 ×7 H2 O and 25 mmol/l NaHCO3.
The contractions are detected isometrically by Statham UC2 cells by means of a bridge amplifier (ifd Mulheim or DSM Aalen) and digitised and evaluated by means of an A/D converter (System 570, Keithley, Munich). The implementation of agonist dose-response curves (DRC) is carried out hourly. With each DRC, 3 or 4 individual concentrations are applied to the baths at 4-min intervals. After the end of the DRC and subsequent washing-out cycles (16 times, in each case about 5 sec/min with the abovementioned nutrient solution), a 28-minute rest or incubation phase follows, in the course of which the contractions as a rule reach the starting value again.
The height of, in the normal case, the 3rd DRC is used as a reference quantity for the assessment of the test substance to be investigated in further runs, which test substance in the following DRCs is applied at the start of the incubation time to the baths, in each case in an increasing dose. Each aorta ring is in this case stimulated for the whole day, always with the same agonist.
Agonists and their Standard Concentrations (Administration Volume Per Individual Dose=100 μl):
For the calculation of the IC50 (concentration at which the substance to be investigated causes a 50% inhibition), the effect in each case at the 3rd=submaximal agonist concentration is used as a basis.

| SMILES | pIC50 |
| --- | --- |
| CCCCc1nc(Cl)c(C=C(CC2CCCC2)C(=O)OC)n1Cc1ccc(S(=O)(=O)N2CCCCC2C(=O)O)cc1Cl (racemic) [Example 2, rac-4-{[2-Butyl-4-chloro-5-(3-cyclopentyl-2-methoxycarbonylprop-1-enyl)imidazolyl]methyl}-3-chlorobenzenesulphonyl-N-(2-carboxy)piperidinide] | 7.96 |
| CCCCc1nc(Cl)c(C=C(CC2CCCC2)C(=O)O)n1Cc1ccc(S(=O)(=O)N2CCC[C@H]2C(=O)O)cc1 [Example 19] | 7.40 |
| CCCCc1nc(Cl)c(C=C(CC2CCCCC2)C(=O)O)n1Cc1ccc(S(=O)(=O)N2CCC[C@H]2C(=O)O)cc1Cl [Example 24] | 9.00 |

Further lines, results first:

| pIC50 | SMILES |
| --- | --- |
| 8.40 | CCCCc1ncc(C=C(CCC)C(=O)O)n1Cc1ccc(S(=O)(=O)N2CCC[C@H]2C(=O)O)cc1Cl [Example 39] |
| 8.52 | CCCCc1ncc(C=C(CC(C)C)C(=O)O)n1Cc1ccc(S(=O)(=O)N2CCC[C@H]2C(=O)O)cc1Cl [Example 43] |
| 8.40 | CCCCc1ncc(C=C(CC2CCCC2)C(=O)O)n1Cc1ccc(S(=O)(=O)N2CCC[C@H]2C(=O)O)cc1Cl [Example 47] |
| 8.22 | CCCCc1ncc(C=C(Cc2cccs2)C(=O)OC)n1Cc1ccc(S(=O)(=O)N2CCC[C@H]2C(=O)O)cc1Cl [Example 53] |
| 8.52 | CCCCc1ncc(C=C(Cc2cccs2)C(=O)O)n1Cc1ccc(S(=O)(=O)N2CCC[C@H]2C(=O)O)cc1Cl [Example 55] |
| 8.22 | CCCCc1ncc(C=C(Cc2ccc(F)cc2)C(=O)OC)n1Cc1ccc(S(=O)(=O)N2CCC[C@H]2C(=O)O)cc1Cl [Example 57] |

The compounds below were run on smooth muscle cells (assay: Inhibition of the proliferation of smooth muscle cells (3H-thymidine incorporation)). Settings: 10^-6 M.
Assay type: cell-based, rats or pigs
Experimental: Investigation of Inhibition of the Proliferation of Smooth Muscle Cells by the Compounds According to the Invention
To determine the antiproliferative action of the compounds, smooth muscle cells are used which have been obtained from the aortas of rats or pigs by the media explant technique [R. Ross, J. Cell. Biol. 50, 172, 1971]. The cells are inoculated into suitable culture dishes, as a rule 24-hole plates, and cultured at 37° C. in 5% CO2 for 2-3 days in Medium 199 containing 7.5% FCS and 7.5% NCS, 2 mM L-glutamine and 15 mM HEPES, pH 7.4. After this, the cells are synchronised by withdrawal of serum for 2-3 days and then stimulated into growth with AII, serum or other factors. At the same time, test compounds are added. After 16-20 hours, 1 μCi of ^3 H-thymidine is added and the incorporation of this substance into the TCA-precipitable DNA of the cells is determined after a further 4 hours.

| SMILES | inhibition at 1 µM |
| --- | --- |
| CCCCc1nc(Cl)c(C=CC(=O)O)n1Cc1ccc(S(=O)(=O)N2CCCC2)cc1 [Example 6] | 70% |
| CCCCc1nc(Cl)c(C=C(Cc2cccs2)C(=O)OC)n1Cc1ccc(S(=O)(=O)N2CCCCC2)cc1 [Example 27] | 30% |

These compounds were tested on Angiotensin II-infused rat (assay: Blood pressure measurements on the angiotensin II-infused rat). Settings: 0.1 mg/kg p.o.; angiotensin II infusion 0.3 μg/kg/min; average values.
Assay type: in vivo, male Wistar rats
Experimental: Blood Pressure Measurements on the Angiotensin II-Infused Rat
Male Wistar rats (Moellegaard, Copenhagen, Denmark) having a body weight of 300-350 g are anaesthetised with thiopental (100 mg/kg i.p.). After tracheotomy, a catheter is inserted in the femoral artery for blood pressure measurement and a catheter for angiotensin II infusion and a catheter for substance administration are inserted in the femoral veins. After administration of the ganglionic blocker pentolinium (5 mg/kg i.v.), the angiotensin II infusion (0.3 μg/kg/min) is started. As soon as the blood pressure values have reached a stable plateau, the test substances are administered either intravenously or orally as a suspension or solution in 0.5% Tylose.

| SMILES | Blood pressure measurement (blood pressure change) |
| --- | --- |
| CCCCc1nc(Cl)c(C=C(CC2CCCCC2)C(=O)O)n1Cc1ccc(S(=O)(=O)N2CCC[C@H]2C(=O)O)cc1 [Example 23] | -17 mm Hg |
| CCCCc1ncc(C=C(CC(C)C)C(=O)OCC)n1Cc1ccc(S(=O)(=O)N2CCC[C@H]2C(=O)O)cc1Cl [Example 41] | -11 mm Hg |
| CCCCc1ncc(C=C(CC(C)C)C(=O)O)n1Cc1ccc(S(=O)(=O)N2CCC[C@H]2C(=O)O)cc1Cl [Example 43] | -10 mm Hg |

Each compound was assayed against T1, Angiotensin II receptor (Bos taurus, UniProt P25104) (assay: Interaction with the angiotensin II receptor on membrane fractions of the adrenal gland cortex (cattle), 3H-angiotensin II binding). Settings: bovine adrenal gland cortex membranes, 3H-angiotensin II 3-5 nM, 60 min at room temperature.
T1 construct: from tissue; host or cells: bovine adrenal gland cortex, partially purified membrane fractions
T1 sequence (P25104 1-359): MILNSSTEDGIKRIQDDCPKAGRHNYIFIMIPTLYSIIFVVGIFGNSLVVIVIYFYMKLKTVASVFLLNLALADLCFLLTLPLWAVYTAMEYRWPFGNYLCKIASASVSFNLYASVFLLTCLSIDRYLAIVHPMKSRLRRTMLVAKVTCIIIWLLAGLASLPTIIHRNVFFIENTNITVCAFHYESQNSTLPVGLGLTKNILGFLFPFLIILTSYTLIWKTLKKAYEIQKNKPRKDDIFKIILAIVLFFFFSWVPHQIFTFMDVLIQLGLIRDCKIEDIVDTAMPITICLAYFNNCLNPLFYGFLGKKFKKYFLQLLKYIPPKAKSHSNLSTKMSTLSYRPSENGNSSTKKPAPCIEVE
From the text: Interaction of the Compounds According to the Invention with the Angiotensin II Receptor on Membrane Fractions of the Adrenal Gland Cortex (Cattle)
Adrenal gland cortices of cattle (AGC), which have been freshly removed and carefully freed from gland medulla, are comminuted in sucrose solution (0.32M) with the aid of an Ultra-Turrax (Janke & Kunkel, Staufen i.B.) to give a coarse membrane homogenate and are partially purified in two centrifugation steps to give membrane fractions. The receptor binding investigations are carried out on partially purified membrane fractions of bovine AGC using radioactive angiotensin II in an assay volume of 0.25 ml, which in detail contains the partially purified membranes (50-80 μg), ^3 H-angiotensin II (3-5 nM), test buffer solution (50 mM tris, pH 7.2, 5 mM MgCl2, 0.25% BSA) and the substances to be investigated. After an incubation time of 60 min at room temperature, the unbound radioactivity of the samples is separated by means of moistened glass fibre filters (Whatman GF/C) and the bound radioactivity is measured […] in a scintillation cocktail after washing the protein with ice-cold buffer solution (50 mM tris/HCl, pH 7.4, 5% PEG 6000). The analysis of the raw data was carried out using computer programs to give Ki or IC50 values (Ki : IC50 values corrected for the radioactivity used; IC50 values: concentration at which the substance to be investigated causes a 50% inhibition of the specific binding of the radioligand).

| pKi | SMILES |
| --- | --- |
| 7.00 | CCCCc1nc(Cl)c(C=C(CC2CCCC2)C(=O)O)n1Cc1ccc(S(=O)(=O)N2CCCCC2)cc1 [Example 9] |
| 7.40 | CCCCc1nc(Cl)c(C=C(CC2CCCCC2)C(=O)O)n1Cc1ccc(S(=O)(=O)N2CCCCC2)cc1 [Example 10] |
| 7.40 | CCCCc1nc(Cl)c(C=C(CC2CCCC2)C(=O)O)n1Cc1ccc(S(=O)(=O)N2CCCCC2C(=O)O)cc1Cl (stereo not drawn) [Example 20] |
| 6.92 | CCCCc1nc(Cl)c(C=C(Cc2cccs2)C(=O)OC)n1Cc1ccc(S(=O)(=O)N2CCCCC2C(=O)OC(C)(C)C)cc1 (stereo not drawn) [Example 30] |

Source: US5475016A, “Sulphonylbenzyl-substituted imidazolypropenoic acid derivatives” (Bayer Aktiengesellschaft, priority 1992, dated 1995)
